Laboratory results as given in patent US20240294526A1, “FUSED TRI-CYCLIC COMPOUND AS A PDE3/PDE4 DUAL INHIBITOR” (CHIA TAI TIANQING PHARMACEUTICAL GROUP CO., LTD., priority 2018, published 2024).

Tests used:
recombinant human PDE4B = recombinant human PDE4B (Homo sapiens (Human), UniProt Q07343); assay: In vitro inhibitory activity against PDE 4B enzyme (fluorescence polarization); assay type: biochemical; details: 1 μM cAMP
Protocol: (§1) Experimental objective: to determine the AMP/GMP expression based on fluorescence polarization, i.e., to trace binding of AMP/GMP to antibody so as to indicate enzyme activity.
Experimental buffer solution: 10 mM Tris-HCl (pH 7.5), 5 mM MgCl2, 0.01% Brij 35, 1 mM DTT, and 1% DMSO.
Enzyme: recombinant human PDE4B (Gene accession number: NM_002600; amino acid 305-end) was expressed by baculovirus in Sf9 insect cells using an N-terminal GST tag, with molecularweight being 78 kDa.
(§2) Enzyme substrate: 1 μM cAMP
(§3) Detection: Transcreener® AMP2/GMP2 antibody and AMP2/GMP2 AlexaFluor633 tracer.
(§4) • 1. The recombinant human PDE4B enzyme and enzyme substrate (1 μM cAMP) were each dissolved in newly prepared experimental buffer solution; • 2. The PDE4B enzyme buffer solution was transferred into reaction wells; • 3. The compound which was dissolved in 100% DMSO was added to the reaction wells containing PDE4B enzyme buffer solution by acoustic technique (echo 550; millilambda range) and the mixture was incubated for 10 minutes at room temperature; • 4. The enzyme substrate buffer solution was added to the above reaction wells to initiate reaction; • 5. The resulting mixture was incubated at room temperature for 1 hour; • 6. The detection mixture (Transcreener® AMP2/GMP2 antibody and AMP2/GMP2 AlexaFluor633 tracer) was added to stop the reaction, and the resulting mixture was incubated for 90 minutes while slowly mixing. The measurement range of fluorescence polarization was Ex/Em=620/688.
(§5) Data analysis: the fluorescence polarization signal was converted to nM based on AMP/GMP standard curve and the percentage enzyme activity relative to DMSO control calculated by Excel. GraphPad Prism was used for curve fitting (drawing medical icon).

recombinant human PDE3A = recombinant human PDE3A (Homo sapiens (Human), UniProt Q14432); assay: In vitro inhibitory activity against PDE 3A enzyme (fluorescence polarization); assay type: biochemical; details: 1 μM cAMP
recombinant human PDE3A, sequence (Q14432 669-1141 limits assumed): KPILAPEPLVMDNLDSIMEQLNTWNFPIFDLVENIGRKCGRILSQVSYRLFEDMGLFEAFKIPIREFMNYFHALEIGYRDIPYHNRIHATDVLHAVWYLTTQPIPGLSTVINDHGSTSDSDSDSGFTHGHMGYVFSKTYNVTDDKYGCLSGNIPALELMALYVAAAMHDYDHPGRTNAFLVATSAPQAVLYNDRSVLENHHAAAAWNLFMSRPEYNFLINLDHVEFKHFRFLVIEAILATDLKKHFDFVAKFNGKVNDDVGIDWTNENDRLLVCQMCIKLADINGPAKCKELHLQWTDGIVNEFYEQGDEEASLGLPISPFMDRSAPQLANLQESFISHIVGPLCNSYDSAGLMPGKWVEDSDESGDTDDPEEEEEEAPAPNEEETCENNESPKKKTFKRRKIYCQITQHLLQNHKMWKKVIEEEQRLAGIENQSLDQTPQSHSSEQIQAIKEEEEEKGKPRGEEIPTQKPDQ
Protocol: as §1
Experimental buffer solution: 10 mM Tris-HCl (pH 7.5), 5 mM MgCl2, 0.01% Brij 35, 1 mM Dithiothreitol (DTT), and 1% DMSO.
Enzyme: recombinant human PDE3A (Gene accession number: NM_000921; amino acid 669-end) was expressed by baculovirus in Sf9 insect cells using an N-terminal GST tag, with molecularweight being 84 kDa.
as §2, §3
as §4, with “PDE3A” for “PDE4B”, “newly-prepared” for “newly prepared”
as §5

[1] = Pharmacokinetic experiment in beagle dogs; assay type: in vivo
Protocol: In this study, male beagle dogs were selected as test animals, and liquid chromatography-tandem mass spectrometry (LC-MS/MS) method was used for quantitatively measuring the drug concentration in plasma of beagle dogs at different time points after intravenous injection or oral administration of compound WX036 so as to evaluate the pharmacokinetic characteristics of the compound WX036 in beagle dogs.
The clear solution of compound WX036 was injected into two 10-12 kg beagle dogs via the cephalic vein or saphenous vein, and the clear solution of test compound was administered intragastrically to two 10-12 kg beagle dogs (overnight fasted). The animals were all subjected to approximately 500 μL of blood collection each time from peripheral veins at 0.0333, 0.0833, 0.25, 0.5, 1, 2, 4, 6, 8, and 24 hours post-dose, and the blood was transferred into commercial centrifuge tubes containing 0.85-1.15 mg of K2 EDTA*2H2O anticoagulant, and plasma was taken by centrifugation at 3000 g for 10 minutes at 4° C. The plasma concentration was measured by LC-MS/MS method, and the relevant pharmacokinetic parameters were calculated by WinNonlin™ Version 6.3 (Pharsight, Mountain View, CA) pharmacokinetic software using non-compartmental model linear logarithmic trapezoid method.

[2] = reported; cited from earlier work
[3] = reported; cited from earlier work; remark: listed apart in the source

recombinant human PDE4B, sequence (Q07343 305-736 limits assumed): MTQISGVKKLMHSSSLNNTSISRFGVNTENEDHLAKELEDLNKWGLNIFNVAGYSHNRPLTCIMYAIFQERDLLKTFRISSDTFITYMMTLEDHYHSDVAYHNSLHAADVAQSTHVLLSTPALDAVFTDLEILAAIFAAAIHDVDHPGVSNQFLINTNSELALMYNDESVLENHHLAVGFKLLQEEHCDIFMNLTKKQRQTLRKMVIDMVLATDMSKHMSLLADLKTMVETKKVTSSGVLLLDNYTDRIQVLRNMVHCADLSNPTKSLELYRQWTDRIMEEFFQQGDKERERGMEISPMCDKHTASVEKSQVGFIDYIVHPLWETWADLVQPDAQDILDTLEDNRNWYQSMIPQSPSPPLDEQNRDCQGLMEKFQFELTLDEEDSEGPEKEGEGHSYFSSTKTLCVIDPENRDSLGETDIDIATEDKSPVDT

| Compound | IC50 (recombinant human PDE4B) [nM] | IC50 (recombinant human PDE3A) [nM] | also measured |
| --- | --- | --- | --- |
| CCOc1cc2c(cc1OC)-c1c/c(=N\c3c(C)cc(C)cc3C)n(CCNC(=O)c3cnc[nH]3)c(=O)n1CC2 [WX021] | 1.1 | – | – |
| CCOc1cc2c(cc1OC)-c1c/c(=N\c3c(C)cc(C)cc3C)n(CCNC(=O)c3cnc[nH]3)c(=O)n1CCC2 [WX049] | 0.05 | 0.3 | – |
| CCOc1cc2c(cc1OC)-c1c/c(=N\c3c(C)cc(C)cc3C)n(CCNC(=O)c3[nH]nnc3N)c(=O)n1CC2 [WX025] | 0.44 | – | – |
| CCOc1cc2c(cc1OC)-c1c/c(=N\c3c(C)cc(C)cc3C)n(CCC(=O)Nc3cnn[nH]3)c(=O)n1CC2 [WX055] | 2.1 | – | – |
| CCOc1cc2c(cc1OC)-c1c/c(=N\c3c(C)cc(C)cc3C)n(CCNC(=O)c3ncc[nH]3)c(=O)n1CC2 [WX017] | 0.43 | – | – |
| CCOc1cc2c(cc1OC)-c1c/c(=N\c3c(C)cc(C)cc3C)n(CCNC(=O)c3c(O)nnn3C)c(=O)n1CC2 [WX036] | – | – | Area under plasma concentration-time curve (0-inf) ([1]; intravenous injection 0.5 mg/kg): 0.21 µM·h; Area under plasma concentration-time curve (0-inf) ([1]; oral administration 3 mg/kg): 0.123 µM·h; Peak concentration ([1]; oral administration 3 mg/kg): 59.4 nM; Time to peak ([1]; oral administration 3 mg/kg): 0.6 h |
| CCOc1cc2c(cc1OC)-c1c/c(=N\c3c(C)cc(C)cc3C)n(CCNC(=O)c3nnc[nH]3)c(=O)n1CCC2 [WX047] | 0.16 | 0.1 | – |
| COc1cc2c(cc1OC)-c1c/c(=N\c3c(C)cc(C)cc3C)n(CCNC(N)=O)c(=O)n1CC2 [RPL554] | – | – | solubility [2]: poor; plasma clearance [3]: high |
| CCOc1cc2c(cc1OC)-c1c/c(=N\c3c(C)cc(C)cc3C)n(CCC(=O)Nc3ncco3)c(=O)n1CC2 [WX056] | 9.1 | – | – |
| COc1cc2c(cc1OC)-c1cc(Oc3c(C(C)C)cccc3C(C)C)nc(=O)n1CC2 [RPL565] | – | – | solubility [2]: poor; plasma clearance [3]: high |
| CCOc1cc2c(cc1OC)-c1c/c(=N\c3c(C)cc(C)cc3C)n(CCNC(=O)c3ncon3)c(=O)n1CC2 [WX020] | 0.47 | – | – |
| CCOc1cc2c(cc1OC)-c1c/c(=N\c3c(C)cc(C)cc3C)n(CCNC(=O)c3ccn[nH]3)c(=O)n1CC2 [WX018] | 0.05 | – | – |
| CCOc1cc2c(cc1OC)-c1c/c(=N\c3c(C)cc(C)cc3C)n(CCNC(=O)c3[nH]ncc3OC)c(=O)n1CC2 [WX037] | 1.7 | – | – |
| CCOc1cc2c(cc1OC)-c1c/c(=N\c3c(C)cc(C)cc3C)n(CCNC(=O)c3ncco3)c(=O)n1CC2 [WX019] | 0.48 | – | – |
| CCOc1cc2c(cc1OC)-c1c/c(=N\c3c(C)cc(C)cc3C)n(CCNC(=O)c3[nH]nnc3OC)c(=O)n1CC2 [WX026] | 2.5 | – | – |
| CCOc1cc2c(cc1OC)-c1c/c(=N\c3c(C)cc(C)cc3C)n(CCNc3nc[nH]n3)c(=O)n1CCC2 [WX004] | 0.12 | 0.63 | – |
| CCOc1cc2c(cc1OC)-c1c/c(=N\c3c(C)cc(C)cc3C)n(CCNC(=O)c3ccn[nH]3)c(=O)n1CCO2 [WX052] | 0.18 | 0.5 | – |
| CCOc1cc2c(cc1OC)-c1c/c(=N\c3c(C)cc(C)cc3C)n(CCNC(=O)c3cnn[nH]3)c(=O)n1CCC2 [WX048] | 0.27 | 0.03 | – |
| CCOc1cc2c(cc1OC)-c1c/c(=N\c3c(C)cc(C)cc3C)n(CCNC(=O)c3cnn[nH]3)c(=O)n1CCO2 [WX053] | 1.9 | 0.57 | – |
| CCOc1cc2c(cc1OC)-c1c/c(=N\c3c(C)cc(C)cc3C)n(CCNC(=O)c3cnn[nH]3)c(=O)n1CC2 [WX016] | 0.24 | – | – |
| CCOc1cc2c(cc1OC)-c1c/c(=N\c3c(C)cc(C)cc3C)n(CCC(=O)Nc3cn[nH]c3)c(=O)n1CC2 [WX057] | 5.4 | – | – |
| CCOc1cc2c(cc1OC)-c1c/c(=N\c3c(C)cc(C)cc3C)n(CCNC(=O)c3ccn[nH]3)c(=O)n1CCC2 [WX050] | 0.24 | 1.1 | – |
